Measurements: paper PMC9404946, “Antioxidant Capacities and Enzymatic Inhibitory Effects of Different Solvent Fractions and Major Flavones from Celery Seeds Produced in Different Geographic Areas in China” (Antioxidants, 2022)
Marks after values point to notes of the source that are not given here.

What was measured:
[1] = DPPH radical scavenging assay; format: biochemical; conditions: main flavonoids and positive controls (Table 5)
Procedure: The scavenging ability of the free radical DPPH was investigated as described with slight modification. The sample solution (100 μL) and DPPH reagent (0.11 mg/mL, 100 μL) were mixed and incubated (30 min) at room temperature and in darkness. Then, a multi-detection microplate reader was used to measure the absorbance at 517 nm (As). The control group was mixed with DMSO and DPPH reagent in the same volume (A0). A formula was used to calculate the DPPH radical scavenging activity:DPPH radical scavenging activity (%) = [(A0 − As)/A0] × 100, where A0 is the absorbance of the control (untreated group), and As is the absorbance of the test sample. BHT and VC were used as the positive control.

[2] = ABTS radical scavenging assay; format: biochemical
Procedure: The ABTS radical scavenging activity of each fraction was measured based on the method with slight modifications. A 28 mM ABTS and a 9.6 mM potassium persulfate working solution were prepared, mixed in equal volumes, and the mixture was left to stand for 16 h at room temperature, protected from light. The working solution was diluted with EtOH to reach an absorbance of 0.70 ± 0.02 at 740 nm and used for further experiments. Different extracts or compounds (20 μL) concentrations were mixed with the working solution (180 μL). The mixture was incubated at room temperature for 15 min, and the absorbance was recorded at 734 nm (As). DMSO and ABTS reagents in the same volume were mixed to measure the absorbance as the control (A0). Then, the antioxidant activity of the mixture was determined by calculating the decrease using the following formula:ABTS radical inhibiting activity (%) = (A0 − As)/A0 × 100, where A0 is the absorbance of the control (untreated group), and As is the absorbance of the test sample. BHT and VC were used as the positive control.

[3] = Ferric reducing antioxidant power (FRAP); format: biochemical
Procedure: The measurement of FRAP was based on previous studies with slight modifications. A total of 180 uL of FRAP working solution (acetate buffer (pH 3.6): ferric chloride solution (20 mM): TPTZ solution (10 mM) = 10:1:1) was mixed with 20 μL of sample solution and incubated for 30 min at room temperature. The absorbance was measured at 593 nm. The standard curve was linear from 0 to 30 μg Trolox with an R^2 value of 0.9999 (Absorbance: y = 0.0943x + 0.0126, Figure S2I). The results are expressed as milligrams of TE/g dry weight.

[4] = Cupric reducing antioxidant capacity (CUPRAC); format: biochemical; conditions: main flavonoids (Table 5)
Procedure: The cupric ion reducing antioxidant capacity (CUPRAC) was measured according to the method of Drouet et al. with modifications. Briefly, 50 μL of the extract sample was mixed with 150 μL of the CUPRAC solution (composed of 10 mM CuCl2, 7.5 mM neocuproine, and 1 M NH4Ac buffer pH 7; ratio 1:1:1 (v/v/v)). After incubation for 15 min at room temperature, the absorbance value at 450 nm of the reaction mixture was measured. The results were reported as […] of Trolox equivalents (TE) per gram of extract (mg TE/g extract) (calibration curve from different concentrations: 0–70 μg/mL; Absorbance: y = 0.0279x + 0.0126, R² = 0.9997, Figure S2J).

[5] = Metal chelating activity on ferrous ions (ferrozine); format: biochemical; conditions: for Metal Chelating: main flavonoids (Table 5)
Procedure: The iron-chelating activity of each fraction was estimated by the method described by Sapatinha et al. with modifications. Briefly, 50 μL of each sample solution and 50 μL of 1 mM FeCl2 were mixed. Then, the reaction was initiated by adding 100 μL of 2.5 mM ferrozine solution. The mixture was kept at room temperature for 10 min. The absorbance of the resulting solution was measured at 562 nm. The results are expressed as milligrams of ethylenediaminetetraacetic acid (EDTA) equivalent per gram of extract (mg EDTAE/g extract) (calibration curve from different concentrations: 0–55 μg/mL; Absorbance: y = −0.0477x + 3.0616, R² = 0.9966, Figure S2K).

[6] = molecular target: Saccharomyces cerevisiae α-glucosidase; assay: α-Glucosidase inhibitory activity assay (PNPG substrate); format: biochemical; conditions: main flavonoids and acarbose (Table 5)
Source text: (§1) Butylated hydroxytoluene (BHT) and ethylene diamine tetraacetic acid (EDTA) were purchased from Sigma-Aldrich (Shanghai, China). […] Methanol (MeOH), ethanol (EtOH), and dichloromethane (DCM) were purchased from Tianjin Fuyu (Tianjin, China). Ammonium acetate (NH4Ac), iodine (I2), potassium iodide (KI), soluble-starch, acetic acid (AcOH), n-butanol (nBuOH), and silica sand were obtained from Guoyao (Shanghai, China). The products were purified by flash column chromatography on 200–300 mesh silica gel purchased from Xinnuo Huagong (Yantai, Shandong, China). Methanol and acetonitrile of the high-performance liquid chromatography (HPLC) grade were purchased from Thermo Fisher Scientific (Waltham, MA, USA). DMSO-D6 was purchased from J&K (Beijing, China).
The α-glucosidase inhibition test was performed as previously described with some variations. PBS (0.1 M, pH = 6.8), α-glucosidase (5 U/mL), and PNPG (5 mM) were prepared and stored at 4 °C for further use. In total, 20 μL of different concentration sample solution (DMSO dissolved) or DMSO, 60 μL of PBS, and 20 μL of α-Glucosidase (0.5 U/mL) were added to a 96-well plate and incubated for 20 min at 37 °C. Then, 20 μL of PNPG (5 mM) solution was added and incubated for another 15 min at 37 °C. Subsequently, 80 μL of Na2CO3 (0.1 M) solution was added to terminate the reaction. […] Inhibition (%) was calculated based on absorbance with the following formula: Inhibitor (%) = (A0 − As)/A0 × 100%, where A0 is the absorbance of the blank group, and As is the absorbance of the test group. The IC50 values were calculated using GraphPad Prism 8.0 (GraphPad Software, Inc., La Jolla, CA, USA) to evaluate the α-glucosidase inhibition activity of the tested compounds.

[7] = molecular target: α-amylase; design: method as in PMID 32344340; conditions: previously reported; cited from earlier work
[8] = molecular target: T1, porcine pancreatic α-amylase (Sus scrofa, UniProt P00690); assay: α-Amylase inhibitory activity (starch-iodine); format: biochemical
T1 construct: purchased Shanghai Yuanye Biotechnology Co. (Shanghai, China)
T1 sequence (P00690 16-511): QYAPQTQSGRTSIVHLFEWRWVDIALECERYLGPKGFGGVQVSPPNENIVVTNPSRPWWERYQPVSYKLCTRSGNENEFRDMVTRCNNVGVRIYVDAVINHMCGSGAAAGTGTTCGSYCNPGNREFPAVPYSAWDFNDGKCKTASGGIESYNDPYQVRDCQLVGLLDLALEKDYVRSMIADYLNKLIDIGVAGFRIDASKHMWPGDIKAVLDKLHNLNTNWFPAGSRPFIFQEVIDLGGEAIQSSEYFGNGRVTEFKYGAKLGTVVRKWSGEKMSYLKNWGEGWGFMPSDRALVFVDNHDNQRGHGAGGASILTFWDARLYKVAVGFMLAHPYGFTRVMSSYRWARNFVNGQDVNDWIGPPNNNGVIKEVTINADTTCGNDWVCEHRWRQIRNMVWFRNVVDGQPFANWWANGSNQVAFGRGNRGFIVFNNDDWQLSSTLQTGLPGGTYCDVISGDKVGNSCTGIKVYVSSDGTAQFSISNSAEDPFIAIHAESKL
Source text: as §1

[9] = main flavonoids and positive controls (Table 5)
[10] = main flavonoids and positive control (Table 5)
[11] = solvent fractions and positive controls (Table 3 and text)
[12] = solvent fractions and positive control, Trolox equivalent

Row | SMILES | DPPH IC50 [1] | ABTS IC50 [2, 9] | FRAP [3, 10] | CUPRAC [4] | Metal Chelating [5] | IC50 [6] [µM] | α-amylase inhibitory activity IC50 [7] [µg/mL] | IC50 [8] [µM] | Fe2+ chelating capacity [5] [mg EDTA/g] | ABTS IC50 [2, 11] | FRAP [3, 12]
1 | O=c1cc(-c2ccc(O)cc2)oc2cc(O[C@@H]3O[C@H](CO)[C@@H](O)[C@H](O)[C@H]3O[C@@H]3OC[C@](O)(CO)[C@H]3O)cc(O)c12 [Apiin] | 7686.33 ± 200.18 ^a μM | 1055.33 ± 24.68 ^a μg/mL | 5.97 ± 1.49 ^j mg TE/g | 25.26 ± 0.18 ^g mg TE/g | 17.15 ± 1.37 ^f mg EDTAE/g | 199 ± 14.9 | 1084 | – | – | – | –
2 | O=c1cc(-c2ccc(O)cc2)oc2cc(O[C@@H]3O[C@H](CO)[C@@H](O)[C@H](O)[C@H]3O)cc(O)c12 [Apigenin-7-O-Glucoside] | 4885.33 ± 56.01 ^b μM | 461.00 ± 11.04 ^b μg/mL | 25.90 ± 0.49 ^i mg TE/g | 33.45 ± 0.51 ^g mg TE/g | 5.69 ± 0.19 ^h mg EDTAE/g | 77.5 ± 4.84 | – | 1740 ± 40 | – | – | –
3 | O=c1cc(-c2ccc(O)c(O)c2)oc2cc(O)cc(O)c12 [Luteolin] | 4.65 ± 0.16 ^j μM | 4.58 ± 0.02 ^i,j μg/mL | 1025.12 ± 10.78 ^a mg TE/g | 1502.63 ± 15.92 ^a mg TE/g | 88.44 ±0.64 ^b mg EDTAE/g | 58.8 ± 2.97 | – | 2110 ± 10 | 88.44 | – | –
4 | O=c1cc(-c2ccc(O)c(O)c2)oc2cc(O[C@@H]3O[C@H](CO)[C@@H](O)[C@H](O)[C@H]3O)cc(O)c12 [Luteolin-7-O-glucoside] | 9.28 ± 0.06 ^i μM | 9.41 ± 0.42 ^g μg/mL | 830.71 ± 8.52 ^c mg TE/g | 955.05 ± 3.64 ^b mg TE/g | 8.51 ± 0.21 ^g mg EDTAE/g | 49.9 ± 2.85 | – | – | – | – | –
5 | O=c1cc(-c2ccc(O)cc2)oc2cc(O)cc(O)c12 [Apigenin] | 1292.00 ± 31.00 ^d μM | 223.63 ± 10.35 ^c μg/mL | 59.41 ± 0.24 ^h mg TE/g | 76.44 ± 1.83 ^f mg TE/g | 54.20 ± 1.28 ^c mg EDTAE/g | 80 ± 0.85 | – | – | 54.20 | – | –
6 | COc1cc(-c2cc(=O)c3c(O)cc(OC4OC(CO)C(O)C(O)C4OC4OCC(O)(CO)C4O)cc3o2)ccc1O (stereo not drawn) [Graveobioside B] | 3266.33 ± 365.08 ^c μM | 29.43 ± 1.33 ^e μg/mL | 166.87 ± 2.97 ^g mg TE/g | 328.10 ± 14.10 ^e mg TE/g | 21.32 ± 1.51 ^e mg EDTAE/g | 104 ± 1.85 | – | – | – | – | –
7 | COc1cc(-c2cc(=O)c3c(O)cc(O)cc3o2)ccc1O [Chrysoeriol] | 580.10 ± 35.54 ^f μM | 16.69 ± 0.55 ^f μg/mL | 337.96 ± 0.88 ^e mg TE/g | 947.43 ± 5.72 ^b mg TE/g | 36.49 ± 0.22 ^d mg EDTAE/g | – | – | – | 36.49 | – | –
8 | O=c1cc(-c2ccc(O)c(O)c2)oc2cc(OC3OC(CO)C(O)C(O)C3OC3OCC(O)(CO)C3O)cc(O)c12 (stereo not drawn) [Graveobioside A] | 12.47 ± 0.08 ^h μM | 6.88 ± 0.05 ^h μg/mL | 882.04 ± 0.43 ^b mg TE/g | 887.17 ± 8.95 ^c mg TE/g | 89.98 ± 0.42 ^a mg EDTAE/g | 104 ± 5.75 | – | – | – | – | –
9 | COc1cc(-c2cc(=O)c3c(O)cc(O[C@@H]4O[C@H](CO)[C@@H](O)[C@H](O)[C@H]4O)cc3o2)ccc1O [Chrysoeriol-7-O-glucosid] | 848.23 ± 143.61 ^e μM | 46.64 ± 1.24 ^d μg/mL | 203.35 ± 6.33 ^f mg TE/g | 495.51 ± 6.64 ^d mg TE/g | 8.22 ± 0.84 ^g mg EDTAE/g | 39.8 ± 1.05 | – | 1860 ± 20 | – | – | –
10 | Cc1cc(C(C)(C)C)c(O)c(C(C)(C)C)c1 [BHT, Butylated hydroxytoluene, reference compound] | 39.13 ± 0.93 ^g μM | 5.72 ± 0.10 ^h,i μg/mL | 406.39 ± 4.65 ^d mg TE/g | – | – | – | – | – | – | 3.79 ± 0.04 ^l μg/mL | 406.39 mg TE/g
11 | O=C1O[C@H]([C@@H](O)CO)C(O)=C1O [VC, ascorbic acid, reference compound] | 5.32 ± 0.11 ^j μM | 3.79 ± 0.04 ^j μg/mL | – | – | – | – | – | – | – | 5.72 ± 0.10 ^l μg/mL | 406.39 ± 4.65 ^d mg TE/g
